According to article PMC8308672, “Bioactive Compounds from Euphorbia usambarica Pax. with HIV-1 Latency Reversal Activity” (Pharmaceuticals, 2021):
pEC50: −log10 of the molar value.

How the values were obtained:
latent HIV-1 = test: HIV-1 latency reversal activity, GFP expression of J-Lat 10.6 cells; type: cell-based; conditions: for HIV-1 latency reversal activity of isolated compounds (in words): J-lat 10.6 cells, GFP expression, tested at 1, 10 and 100 μM; for pEC50: Human immunodeficiency virus 1, J-Lat 10.6, read-out: latency EC50, J-Lat 10.6 cells, HIV-1 reactivation dose-response
Method: (§1) Figure 1 HIV-1 latency reversal activity of methanolic crude extract (EU), partitioned n-hexane (EU-H), dichloromethane (EU-C), ethyl acetate (EU-E), and water-soluble residue (EU-W) phases. (A) dose-response experiments conducted with Jurkat T cells that were latently infected with full-length HIV-1 reporter construct (J-Lat 10.6 cells), HIV-1 reactivation quantified as % of positive control (PMA); (B) cell viability of each sample at 10, 50, 100, 500, and 1000 μg/mL.
(§2) Jurkat cells with a full-length integrated HIV-1 provirus that have been modified to contain a GFP coding region in place of the env gene (J-lat 10.6 cells) were used for HIV-1 anti-latency activity, cytotoxicity, and cellular activation testing. All 31 compounds were tested at 1, 10, and 100 μM. […] These compounds were further tested at additional concentrations to determine dose response and toxicity curves (Figure 5A–F). Cell viability for all isolated compounds is presented in Figure S106 in the supplementary material.
The HIV-1-infected Jurkat T cell line (J-Lat 10.6) was obtained in January 2019 from the NIH/ATCC HIV-1 Reagent Program (www.hivreagentprogram.org) and cultured in RPMI-based media supplemented with 10% fetal calf serum, 1% penicillin, and 1% streptomycin.
(§3) After in vitro culture, J-lat cells were washed with phosphate-buffered saline (1× PBS) prior to staining with 0.1 µL fixable viability dye Live/Dead Aqua (Cat L34957, www.thermofisher.com) per 10^5 cells for 30 min at 4 °C. Simultaneously, J-lat cells were also stained with antibodies against CD69 conjugated to an APC fluorophore (APC anti-human CD69 antibody, biolegend.com). Cells were then washed and re-suspended in 1× PBS prior to flow cytometry acquisition evaluating for cellular viability, green fluorescent protein (GFP) expression, and CD69 expression. Flow cytometry was performed with a BD FACSCelesta or FACSCanoto flow cytometer with FACSDiva acquisition software (Becton Dickinson, Mountain View, CA) prior to analysis with FlowJo (TreeStar Inc., Ashland, OR, USA).
Isolated compounds were resuspended in dimethyl sulfoxide (DMSO; Sigma-Aldrich, Burlington, USA), at a concentration of 10 mM, and diluted with PBS, and tested with J-lat 10.6 cells at concentrations of 100, 10, and 1 μM. J-lat 10.6 cells were tested with compounds at a concentration of 2.5 × 10^5 cells/mL. We performed a minimum of three replicates of each condition for all experiments. Negative controls contained 1% DMSO to account for any effect of DMSO in the highest dilution of compounds.

PKC = test: Latency reversal activity in the presence and absence of pan-PKC inhibitor Gö6983; type: cell-based, human; conditions: presence versus absence of pan-PKC inhibitor Gö6983
Source text: (§4) In order to determine whether our active compounds were acting through PKC, we evaluated the latency reversal activity of each of these compounds in the presence and absence of a pan-PKC inhibitor, Gö6983 (Figure 7).
Figure 7 Effect of PKC inhibition on HIV-1 reactivation of compounds 13–14, 21, 26, and 27.

CD69 = CD69 expression on J-lat cells (flow cytometry); type: cell-based, human
Method: as §4, §3

latent HIV = tested on: latent HIV; set-up: method as in PMID 30031972; conditions: read-out: EC50, reactivation of latent HIV; cited from earlier work
in vitro = type: cell-based, human; conditions: human, J-Lat 10.6 cells; read-out: cellular CC50
Method: as §1, §2, §3
(§5) Isolated compounds were resuspended in dimethyl sulfoxide (DMSO; Sigma-Aldrich, Burlington, USA), at a concentration of 10 mM, and diluted with PBS, and tested with J-lat 10.6 cells at concentrations of 100, 10, and 1 μM. J-lat 10.6 cells were tested with compounds at a concentration of 2.5 × 10^5 cells/mL. […]

J-Lat 10.6 cells = test: in vitro; type: cell-based, human; conditions: read-out: cellular CC50
Method: as §1, §2, §3, §5

HIV-1 = conditions: read-out: EC50, anti-HIV-1 activity; cited from earlier work
HIV-1 latency = tested on: HIV-1 latency; set-up: method as in PMID 30944245; conditions: through the PKC pathway; cited from earlier work

Compound: COc1cc(C2OCC3C(c4cc(OC)c(O)c(OC)c4)OCC23)cc(OC)c1O (single isomer, unassigned; (+)) [Compound 26, (+)-syringaresinol]
- HIV-1 latency reversal activity of isolated compounds (in words) (latent HIV-1): showed HIV-1 latency reversal activity
- latency reversal activity when PKC was inhibited (in words) (PKC): did not show a significant reduction
- CD69 expression (hallmark of PKC activation) (in words) (CD69): did not increase CD69 expression

Compound: CC1=C[C@]23C(=O)[C@@H](C=C(CO)[C@@H](O)[C@]2(O)[C@H]1OC(=O)c1ccc2ccccc2c1)[C@H]1[C@@H](C[C@H]3C)C1(C)C [3-(2-naphthoyl)ingenol]
- pEC50 (latent HIV): 8.62

Compound: C/C=C(/C)C(=O)O[C@H]1C(C)=C[C@]23C(=O)[C@@H](C=C(CO)[C@@H](O)[C@]12O)[C@H]1[C@@H](C[C@H]3C)C1(C)C [3-angeloylingenol]
- pEC50 (latent HIV): 8.38

Compound: CC(=O)O[C@@]12[C@H](OC(=O)c3ccccc3)[C@@H](C)[C@]3(O)[C@@H]4C=C(C)C(=O)C4=CC(C)=C[C@H]3[C@@H]1C2(C)C [Compound 12, 12-O-benzoyl-13-acetoxy-4,20-dideoxyphorbol-4-ene]
- HIV-1 latency reversal activity of isolated compounds (in words) (latent HIV-1): showed HIV-1 latency reversal activity
- latency reversal activity when PKC was inhibited (in words) (PKC): reduced efficacy

Compound: CC(=O)O[C@@]12[C@H](OC(=O)c3ccccc3)[C@@H](C)[C@]3(O)[C@@H]4C=C(C)C(=O)[C@@H]4CC(CO)=C[C@H]3[C@@H]1C2(C)C [Compound 13, crotignoid K]
- pEC50 (latent HIV-1): 5.43
- HIV-1 latency reversal activity of isolated compounds (in words) (latent HIV-1): showed HIV-1 latency reversal activity
- CC50 at 24 h (in vitro): 40 µM
- latency reversal activity when PKC was inhibited (in words) (PKC): reduced efficacy

Compound: CC(=O)O[C@@]12[C@H](OC(=O)c3ccccc3)[C@@H](C)[C@]3(O)[C@@H]4C=C(C)C(=O)[C@H]4CC(CO)=C[C@H]3[C@@H]1C2(C)C [Compound 14, 4β-Crotignoid K]
- pEC50 (latent HIV-1): 7.82
- fold difference in selectivity index (CC50/EC50), 14 versus 13 (latent HIV-1; J-Lat 10.6 cells, compared to crotignoid K (13)): ~ 1000 fold
- HIV-1 latency reversal activity of isolated compounds (in words) (latent HIV-1): showed HIV-1 latency reversal activity
- CC50 at 24 h (in vitro): 160 µM
- CC50 (J-Lat 10.6 cells): > 160 µM
- latency reversal activity when PKC was inhibited (in words) (PKC): reduced efficacy

Compound: CC1=C2C=C3CC[C@@H]4C(C)(C)C(=O)CC[C@@]4(C)[C@@H]3C[C@H]2OC1=O [Compound 21, helioscopinolide E]
- HIV-1 latency reversal activity of isolated compounds (in words) (latent HIV-1): showed HIV-1 latency reversal activity
- latency reversal activity when PKC was inhibited (in words) (PKC): reduced efficacy

Compound: COc1cc([C@H]2Oc3c(OC)cc(/C=C/COC(C)=O)cc3[C@@H]2COC(C)=O)ccc1O [Compound 27, dimeric coniferyl acetate]
- HIV-1 latency reversal activity of isolated compounds (in words) (latent HIV-1): showed HIV-1 latency reversal activity
- latency reversal activity when PKC was inhibited (in words) (PKC): did not show a significant reduction
- CD69 expression (hallmark of PKC activation) (in words) (CD69): did not increase CD69 expression

Compound: CC1(C)OC[C@@]2(C[C@]34CC[C@H]2C[C@H]3[C@]2(C)CC[C@H](O)C(C)(C)[C@H]2CC4)O1 [euphorneroid D]
- pEC50 (HIV-1): 4.47

Compound: CC1=C[C@]23C(=O)[C@@H](C=C(CO)[C@@H](O)[C@]2(O)[C@H]1O)[C@H]1[C@@H](C[C@H]3C)C1(C)C [ingenol]
- reactivation of HIV-1 latency (in words) (HIV-1 latency): significant effect in the reactivation of HIV-1 latency

Compound: ent-3-oxoatisan-16α,17-acetonide
- pEC50 (HIV-1): 4.62
